From ChEMBL document CHEMBL1133284, “3-Phenyl-5-methyl-2H,5H-furan-2-ones: tuning antifungal activity by varying substituents on the phenyl ring” (2000)
Values after ≈ are worked out from the molar mass of the structure shown.

What was measured:
Trichophyton benhamiae [1] = assay: In vitro minimum inhibitory concentration of compound was determined against Trichophyton mentagrophytes after 120 hr; type: functional, Arthroderma benhamiae
Nakaseomyces glabratus [2] = assay: In vitro minimum inhibitory concentration of compound was determined against Candida glabrata after 48 hr; type: functional
Candida tropicalis [3] = assay: In vitro minimum inhibitory concentration of compound was determined against Candida tropicalis after 48 hr; type: functional
Candida albicans [4] = assay: In vitro minimum inhibitory concentration of compound was determined against Candida albicans after 48 hr; type: functional
Trichophyton benhamiae [5] = assay: In vitro minimum inhibitory concentration of compound was determined against Trichophyton mentagrophytes after 72 hr; type: functional, Arthroderma benhamiae
Aspergillus fumigatus [6] = assay: In vitro minimum inhibitory concentration of compound was determined against Aspergillus fumigatus after 48 hr; type: functional
Pichia kudriavzevii [7] = assay: In vitro minimum inhibitory concentration of compound was determined against Candida krusei after 48 hr; type: functional
Trichosporon beigelii [8] = assay: In vitro minimum inhibitory concentration of compound was determined against Trichosporon beigelii after 48 hr; type: functional
Aspergillus fumigatus [9] = assay: In vitro minimum inhibitory concentration of compound was determined against Aspergillus fumigatus after 24 hr r; type: functional
Nakaseomyces glabratus [10] = assay: In vitro minimum inhibitory concentration of compound was determined against Candida glabrata after 24 hr r; type: functional
Candida albicans [11] = assay: In vitro minimum inhibitory concentration of compound was determined against Candida albicans after 24 hr r; type: functional
Lichtheimia corymbifera [12] = assay: In vitro minimum inhibitory concentration of compound was determined against Absidia corymbifera after 48 hr; type: functional
Trichosporon beigelii [13] = assay: In vitro minimum inhibitory concentration of compound was determined against Trichosporon beigelii after 24 hr r; type: functional
Pichia kudriavzevii [14] = assay: In vitro minimum inhibitory concentration of compound was determined against Candida krusei after 24 hr r; type: functional
Candida tropicalis [15] = assay: In vitro minimum inhibitory concentration of compound was determined against Candida tropicalis after 24 hr r; type: functional
Lichtheimia corymbifera [16] = assay: In vitro minimum inhibitory concentration of compound was determined against Absidia corymbifera after 24 hr r; type: functional

Structure (SMILES) | MIC (Trichophyton benhamiae [1]) [µM] | MIC (Nakaseomyces glabratus [2]) [µM] | MIC (Candida tropicalis [3]) [µM] | MIC (Candida albicans [4]) [µM] | MIC (Trichophyton benhamiae [5]) [µM] | MIC (Aspergillus fumigatus [6]) [µM] | MIC (Pichia kudriavzevii [7]) [µM] | MIC (Trichosporon beigelii [8]) [µM] | MIC (Aspergillus fumigatus [9]) [µM] | MIC (Nakaseomyces glabratus [10]) [µM] | MIC (Candida albicans [11]) [µM] | MIC (Lichtheimia corymbifera [12]) [µM] | MIC (Trichosporon beigelii [13]) [µM] | MIC (Pichia kudriavzevii [14]) [µM] | MIC (Candida tropicalis [15]) [µM] | MIC (Lichtheimia corymbifera [16]) [µM]
CC(=O)N1CCN(c2ccc(OC[C@H]3CO[C@](Cn4ccnc4)(c4ccc(Cl)cc4Cl)O3)cc2)CC1 [KETOCONAZOLE] | 1.95 (≈ 1.04 µg/mL) | 0.49 (≈ 0.26 µg/mL) | 15.6 (≈ 8.31 µg/mL) | 0.12 (≈ 0.0638 µg/mL) | 0.98 (≈ 0.521 µg/mL) | 15.6 (≈ 8.31 µg/mL) | 3.91 (≈ 2.08 µg/mL) | 0.12 (≈ 0.0638 µg/mL) | 15.6 (≈ 8.31 µg/mL) | 0.24 (≈ 0.128 µg/mL) | 0.12 (≈ 0.0638 µg/mL) | 31.2 (≈ 16.6 µg/mL) | 0.12 (≈ 0.0638 µg/mL) | 3.91 (≈ 2.08 µg/mL) | 15.6 (≈ 8.31 µg/mL) | 31.2 (≈ 16.6 µg/mL)
CC1C=C(c2ccccc2)C(=O)O1 (configuration not stated) | 1000 (≈ 174 µg/mL) | > 1000 | > 1000 | > 1000 | 500 (≈ 87.1 µg/mL) | > 1000 | > 1000 | > 1000 | 1000 (≈ 174 µg/mL) | > 1000 | 1000 (≈ 174 µg/mL) | > 1000 | > 1000 | > 1000 | > 1000 | 1000 (≈ 174 µg/mL)
CC1C=C(c2ccc(Br)cc2)C(=O)O1 (configuration not stated) | 62.5 (≈ 15.8 µg/mL) | 1000 (≈ 253 µg/mL) | 500 (≈ 127 µg/mL) | 62.5 (≈ 15.8 µg/mL) | 31.2 (≈ 7.91 µg/mL) | 250 (≈ 63.3 µg/mL) | 250 (≈ 63.3 µg/mL) | 250 (≈ 63.3 µg/mL) | 62.5 (≈ 15.8 µg/mL) | 500 (≈ 127 µg/mL) | 7.81 (≈ 1.98 µg/mL) | 125 (≈ 31.6 µg/mL) | 125 (≈ 31.6 µg/mL) | 250 (≈ 63.3 µg/mL) | 250 (≈ 63.3 µg/mL) | 125 (≈ 31.6 µg/mL)
CC[C@@H]1C=C(c2ccc(C)cc2)C(=O)O1 | 250 (≈ 50.6 µg/mL) | > 500 | > 500 | 500 (≈ 101 µg/mL) | 125 (≈ 25.3 µg/mL) | 500 (≈ 101 µg/mL) | > 500 | 500 (≈ 101 µg/mL) | 250 (≈ 50.6 µg/mL) | 500 (≈ 101 µg/mL) | 250 (≈ 50.6 µg/mL) | 250 (≈ 50.6 µg/mL) | 250 (≈ 50.6 µg/mL) | 500 (≈ 101 µg/mL) | 500 (≈ 101 µg/mL) | 250 (≈ 50.6 µg/mL)
Cc1ccc(C2=CC(C)OC2=O)cc1 (configuration not stated) | 500 (≈ 94.1 µg/mL) | > 1000 | > 1000 | > 1000 | 250 (≈ 47.1 µg/mL) | > 1000 | > 1000 | > 1000 | 1000 (≈ 188 µg/mL) | > 1000 | 1000 (≈ 188 µg/mL) | > 1000 | > 1000 | > 1000 | > 1000 | 1000 (≈ 188 µg/mL)
CC1C=C(c2cccc(F)c2)C(=O)O1 (configuration not stated) | 125 (≈ 24 µg/mL) | > 1000 | 1000 (≈ 192 µg/mL) | 250 (≈ 48 µg/mL) | 125 (≈ 24 µg/mL) | 500 (≈ 96.1 µg/mL) | 1000 (≈ 192 µg/mL) | 500 (≈ 96.1 µg/mL) | 250 (≈ 48 µg/mL) | > 1000 | 62.5 (≈ 12 µg/mL) | 500 (≈ 96.1 µg/mL) | 250 (≈ 48 µg/mL) | 500 (≈ 96.1 µg/mL) | 500 (≈ 96.1 µg/mL) | 500 (≈ 96.1 µg/mL)
CC1C=C(c2ccc(Cl)cc2)C(=O)O1 (configuration not stated) | 62.5 (≈ 13 µg/mL) | 1000 (≈ 209 µg/mL) | 500 (≈ 104 µg/mL) | 125 (≈ 26.1 µg/mL) | 31.2 (≈ 6.52 µg/mL) | 125 (≈ 26.1 µg/mL) | 500 (≈ 104 µg/mL) | 250 (≈ 52.2 µg/mL) | 62.5 (≈ 13 µg/mL) | 500 (≈ 104 µg/mL) | 31.2 (≈ 6.52 µg/mL) | 250 (≈ 52.2 µg/mL) | 125 (≈ 26.1 µg/mL) | 250 (≈ 52.2 µg/mL) | 250 (≈ 52.2 µg/mL) | 125 (≈ 26.1 µg/mL)
CC1C=C(c2cccc(Br)c2)C(=O)O1 (configuration not stated) | 125 (≈ 31.6 µg/mL) | 500 (≈ 127 µg/mL) | 500 (≈ 127 µg/mL) | 125 (≈ 31.6 µg/mL) | 62.5 (≈ 15.8 µg/mL) | 250 (≈ 63.3 µg/mL) | 500 (≈ 127 µg/mL) | 250 (≈ 63.3 µg/mL) | 62.5 (≈ 15.8 µg/mL) | 250 (≈ 63.3 µg/mL) | 31.2 (≈ 7.91 µg/mL) | 125 (≈ 31.6 µg/mL) | 62.5 (≈ 15.8 µg/mL) | 250 (≈ 63.3 µg/mL) | 250 (≈ 63.3 µg/mL) | 62.5 (≈ 15.8 µg/mL)
COc1ccc(C2=CC(C)OC2=O)cc1 (configuration not stated) | 250 (≈ 51.1 µg/mL) | > 1000 | > 1000 | 1000 (≈ 204 µg/mL) | 125 (≈ 25.5 µg/mL) | 1000 (≈ 204 µg/mL) | > 1000 | > 1000 | 1000 (≈ 204 µg/mL) | > 1000 | 1000 (≈ 204 µg/mL) | > 1000 | 1000 (≈ 204 µg/mL) | > 1000 | 1000 (≈ 204 µg/mL) | 1000 (≈ 204 µg/mL)
CC1C=C(c2ccc(F)cc2)C(=O)O1 (configuration not stated) | 250 (≈ 48 µg/mL) | 500 (≈ 96.1 µg/mL) | 500 (≈ 96.1 µg/mL) | 250 (≈ 48 µg/mL) | 250 (≈ 48 µg/mL) | 125 (≈ 24 µg/mL) | 500 (≈ 96.1 µg/mL) | 250 (≈ 48 µg/mL) | 125 (≈ 24 µg/mL) | 500 (≈ 96.1 µg/mL) | 62.5 (≈ 12 µg/mL) | 62.5 (≈ 12 µg/mL) | 125 (≈ 24 µg/mL) | 500 (≈ 96.1 µg/mL) | 250 (≈ 48 µg/mL) | 62.5 (≈ 12 µg/mL)
CC1C=C(c2ccc(Cl)c(Cl)c2)C(=O)O1 (configuration not stated) | 62.5 (≈ 15.2 µg/mL) | > 500 | > 500 | 500 (≈ 122 µg/mL) | 31.2 (≈ 7.6 µg/mL) | 62.5 (≈ 15.2 µg/mL) | > 500 | > 500 | 7.81 (≈ 1.9 µg/mL) | > 500 | 31.2 (≈ 7.6 µg/mL) | 31.2 (≈ 7.6 µg/mL) | 31.2 (≈ 7.6 µg/mL) | > 500 | > 500 | 7.81 (≈ 1.9 µg/mL)
CC1C=C(c2ccc([N+](=O)[O-])cc2)C(=O)O1 (configuration not stated) | 125 (≈ 27.4 µg/mL) | 1000 (≈ 219 µg/mL) | 500 (≈ 110 µg/mL) | 500 (≈ 110 µg/mL) | 62.5 (≈ 13.7 µg/mL) | 1000 (≈ 219 µg/mL) | 500 (≈ 110 µg/mL) | 1000 (≈ 219 µg/mL) | 250 (≈ 54.8 µg/mL) | 500 (≈ 110 µg/mL) | 250 (≈ 54.8 µg/mL) | 250 (≈ 54.8 µg/mL) | 500 (≈ 110 µg/mL) | 500 (≈ 110 µg/mL) | 500 (≈ 110 µg/mL) | 250 (≈ 54.8 µg/mL)
